Several values for one entry are separate records, joined by “and”; a condition that tells them apart may be missing. Equal values may be shown once. Entries after “also recorded” stand apart in the source; their conditions may differ. Read-outs that look alike come from different tables or passages of the source. Where only a bound is given, the exact number is not on record here.

The subject of one series is 111 human receptors. The experiment in a line: human receptor panning, GenSEP Explorer panel of 111 in vitro assay targets. Conditions: 111 targets. The text has this:
In addition, we also performed a profile using human receptor panning. The GenSEP Explorer panel contains 111 in vitro assay targets carefully selected to assess drug/chemical biological activities. Assay categories include GPCRs, Voltage-Gated Ion Channels, Ligand-Gated Ion Channels, Neurotransmitter transporters, Nuclear Receptors and Steroids as well as a diverse set of biochemical targets including phosphodiesterases, kinases and other relevant enzymes.

For another series, the target named is T1, hERG (Homo sapiens, UniProt Q12809).
T1 construct: Apredica, Boston, Mass; (contract laboratory that ran the study)
T1 sequence (Q12809 whole entry): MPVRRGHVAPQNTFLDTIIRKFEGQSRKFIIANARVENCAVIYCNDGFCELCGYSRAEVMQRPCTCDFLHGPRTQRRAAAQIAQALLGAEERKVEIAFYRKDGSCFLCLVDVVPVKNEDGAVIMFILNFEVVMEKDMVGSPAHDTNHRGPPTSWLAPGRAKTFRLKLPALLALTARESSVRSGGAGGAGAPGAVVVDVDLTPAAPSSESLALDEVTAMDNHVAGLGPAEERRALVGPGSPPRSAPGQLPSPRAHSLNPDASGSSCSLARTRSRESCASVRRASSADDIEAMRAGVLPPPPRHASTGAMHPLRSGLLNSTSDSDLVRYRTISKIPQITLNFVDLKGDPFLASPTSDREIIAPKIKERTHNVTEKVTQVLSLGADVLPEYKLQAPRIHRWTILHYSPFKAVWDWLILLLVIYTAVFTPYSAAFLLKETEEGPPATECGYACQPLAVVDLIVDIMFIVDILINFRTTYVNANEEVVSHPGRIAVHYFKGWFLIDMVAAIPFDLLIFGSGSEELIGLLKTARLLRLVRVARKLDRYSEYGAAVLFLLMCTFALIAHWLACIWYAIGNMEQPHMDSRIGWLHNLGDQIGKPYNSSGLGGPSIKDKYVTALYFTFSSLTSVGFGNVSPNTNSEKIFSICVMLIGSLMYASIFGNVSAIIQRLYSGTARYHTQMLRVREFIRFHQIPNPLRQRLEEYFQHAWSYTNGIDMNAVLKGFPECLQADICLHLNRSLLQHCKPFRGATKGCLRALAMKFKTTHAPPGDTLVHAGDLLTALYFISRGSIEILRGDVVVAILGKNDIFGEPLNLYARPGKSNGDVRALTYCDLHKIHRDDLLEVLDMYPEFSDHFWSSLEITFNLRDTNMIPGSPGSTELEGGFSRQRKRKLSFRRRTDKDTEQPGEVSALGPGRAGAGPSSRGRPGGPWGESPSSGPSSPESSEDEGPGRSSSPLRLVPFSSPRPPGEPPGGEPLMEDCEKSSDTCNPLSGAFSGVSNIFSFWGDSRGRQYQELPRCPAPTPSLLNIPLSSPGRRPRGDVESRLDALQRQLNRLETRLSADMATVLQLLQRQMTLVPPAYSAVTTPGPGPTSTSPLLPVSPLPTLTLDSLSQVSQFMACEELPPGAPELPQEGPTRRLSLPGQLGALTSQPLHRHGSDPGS
The experiment in a line: cell-based. The class given is cell-based.

Series [1] is described as follows: SP16 pharmacokinetic profile after intravenous injection (LC/MS/MS of plasma). The class given is in vivo, rats. As to the method: The following table provides the results from an assay for SP16's pharmacokinetic profile. In performing the assay, three normal rats were injected intravenously with 5 mg/kg SP16 and the plasma concentration of SP16 established at 8 time points following the injection. […] The assay was executed by Apredica, Boston, Mass.

Another series relates to healthy mouse. The experiment in a line: cardiac contractility in the healthy mouse (echocardiography, isoproterenol challenge). The class given is in vivo. Conditions: FIG. 7. As to the method:
To test the effect of SP163M on heart contractility the following study was conducted. […] SP34 is a peptide with a scrambled sequence of SP16 and is used as a control peptide.
Ten-weeks-old ICR mice were treated with SP163M (100 μg/mouse i.p.), the control peptide SP34 (100 μg/mouse) or the vehicle solution. Echocardiography was used to assess left ventricular (LV) fractional shortening at baseline and after 180 minutes.
Cardiac contractility reserve was tested with isoproterenol challenge (10 ng/kg i.p.), measuring the increase in LV fractional shortening within 5′ of treatment. Each group included at least 6 mice.

The next series has as its target T2, recombinant LRP1 protein (Homo sapiens, UniProt Q07954).
T2 construct: purchased R&D Systems, Minneapolis, Minn
The series is described as follows: in vitro binding of biotin-peptide to recombinant LRP1 (streptavidin bead pull-down, western blot). Here is the method:
An in vitro assay was performed to examine SP163M binding to LRP1. To perform the assay, recombinant LRP1 protein (1 μg/ml) (R&D Systems, Minneapolis, Minn.) was incubated on ice in the presence of biotin-SP163M (1-5 μg/ml) at 4° C. for 1 hour. This mixture was then incubated with 1 mg/ml M280 Streptavidin Dynabeads (Invitrogen, Carlsbad, Calif.) for 1.5 hours at 4° C. Dynabeads were washed in PBS+0.1% Tween20 and boiled in SDS loading buffer for 5 minutes. The supernatants were separated on NuPAGE 4-12% Bis-Tris gels (Invitrogen) and transferred to nitrocellulose membranes. The membranes were probed with anti-LRP1 (LRP-1 Cluster II Affinity Purified Polyclonal Ab, R&D, Minneapolis, Minn.) and incubated overnight at 4° C. The membranes were then washed 3 times with TBS-T and incubated with secondary HRP-coupled anti-goat diluted 1:10,000 in 5% milk TBS-T. The western blots were visualized by chemiluminescence using SuperSignal West Femto Maximum Sensitivity Substrate kit (ThermoScientific) and a Bio Rad Molecular Imager ChemiDoc XRS system (Bio-Rad, Hercules, Calif.).
Background: A western blot detects proteins with antibodies after separation by electrophoresis.

In another series the target is T3, LRP1 (Mus musculus, UniProt Q91ZX7).
T3 construct: from tissue; host or cells: living CD1 mice (heart, in vivo)
The experiment in a line: experimental AMI in mice pretreated with LRP1 blocking antibody. The class given is in vivo. Conditions: LRP1 antibody clone 5A6 3 mg/kg 16 hours before surgery; SP163M 100 μg or AAT 60 mg/kg i.p. after reperfusion, FIG. 14. As to the method:
To examine the whether LRP1 mediates the cardioprotective effect of SP163M, groups of mice were treated with an LRP1 blocking antibody prior to experimental AMI. The resulting infarct size and LV systolic function were measured
Adult out-bred male CD1 mice (10 weeks of age) supplied by Harlan Sprague Dawley (Indianapolis, Ind.) were used in this study. A single operator (S.T.) skilled in coronary artery surgical ligation in mice performed all surgeries. Experimental AMI was induced by transient coronary artery ligation of the left anterior descending coronary artery for 30 minutes to induce ischemia of the anterior wall and the apex (visible as pallor) followed by reperfusion, and leading to an infarct involving approximately 15% of the left ventricle. […]
Infarct size (reported in FIG. 14A) was measured as previously described. […] The infarcted tissue (appearing white) and the viable tissue (bright red) were measured by computer morphometry using Image Pro Plus 6.0 software (Media Cybernetics, Silver Spring, Md.). […]
LV systolic function (reported in FIG. 14B) was determined as well. […] We measured the left ventricular (LV) end-diastolic and end-systolic areas at B-Mode and the LV end-diastolic diameter (LVEDD), LV end-systolic diameters (LVESD) at M-Mode. LV fractional shortening (FS) and LV ejection fraction (EF) were calculated. […]

The subject of series [2] is inflammatory reaction that occurs after AMI. Conditions: pilot clinical study; cited from earlier work.
Series [3] deals with experimental acute myocardial infarction (AMI) in the mouse. Conditions: AAT at onset of ischemia or at time of reperfusion, cited from earlier work.
The next series has as its system TNF-alpha. The experiment in a line: LPS challenged mouse model of sepsis, TNF-alpha levels. The class given is in vivo. The text has this:
Specifically, in these particular fragments, the three most N-terminal and the two most C-terminal amino acids appear to play a role in the anti-inflammatory properties of the peptides as replacement of them appeared to reduce the capacity of the peptides to reduce TNF-alpha levels in a LPS challenged mouse model of sepsis (see, e.g., PCT/US13/20498; which is incorporated by reference herein in its entirety). Accordingly, in some aspects of all embodiments of the invention the peptides are selected from SP40, SP43, SP46, and SP49 the peptide sequences of which are set forth in Table B.
Table C below presents additional exemplary peptides that were used to reduce TNF-alpha levels in mice subjected to an LPS challenge. Also the peptides with capacity to reduce TNF-alpha levels as described in PCT/US13/20498; which is incorporated by reference herein in its entirety, are contemplated for the compositions, pharmaceutical compositions and methods of use and treatment of inflammatory conditions in the present invention.

Setting [4] is: rat, in vivo, SP16, IV (5 mg/kg), normal rats.

T2 sequence (Q07954 with tags, fused parts or gaps limits assumed, species assumed): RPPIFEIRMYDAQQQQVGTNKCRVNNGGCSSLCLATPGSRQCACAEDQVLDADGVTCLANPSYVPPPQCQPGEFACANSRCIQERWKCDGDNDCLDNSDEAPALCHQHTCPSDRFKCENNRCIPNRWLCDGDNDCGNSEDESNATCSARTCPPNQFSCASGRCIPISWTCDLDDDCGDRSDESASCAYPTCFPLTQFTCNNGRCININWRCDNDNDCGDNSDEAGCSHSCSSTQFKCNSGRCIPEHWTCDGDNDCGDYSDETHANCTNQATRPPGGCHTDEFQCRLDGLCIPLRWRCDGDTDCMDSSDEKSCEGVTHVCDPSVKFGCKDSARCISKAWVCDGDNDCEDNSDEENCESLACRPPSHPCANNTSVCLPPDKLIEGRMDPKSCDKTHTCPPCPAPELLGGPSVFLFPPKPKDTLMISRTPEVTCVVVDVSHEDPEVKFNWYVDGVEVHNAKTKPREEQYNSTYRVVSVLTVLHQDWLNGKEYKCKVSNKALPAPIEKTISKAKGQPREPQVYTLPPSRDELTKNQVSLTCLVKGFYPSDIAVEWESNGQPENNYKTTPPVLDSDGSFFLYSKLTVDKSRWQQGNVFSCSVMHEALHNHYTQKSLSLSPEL

One may read the IC50 as the concentration that inhibits the measured activity by half. Read a high IC50 as lower potency. By Cmax is commonly meant the highest concentration seen after dosing. For orientation: MRT inf means the average time that molecules of a dose stay in the body. The AUC is concentration integrated over time. On to `CC[C@H](C)[C@H](NC(=O)[C@H](CCSC)NC(=O)[C@H](CC(C)C)NC(=O)[C@H](Cc1ccccc1)NC(=O)[C@@H](NC(=O)[C@H](Cc1ccccc1)NC(=O)[C@@H]1CCCN1C(=O)[C@H](CCCCN)NC(=O)[C@H](CC(N)=O)NC(=O)[C@H](Cc1ccccc1)NC(=O)[C@H](CCCCN)NC(=O)[C@@H](N)C(C)C)C(C)C)C(=O)N[C@@H](CCC(=O)O)C(=O)N[C@@H](CCC(N)=O)C(=O)N[C@@H](CC(N)=O)C(=O)N[C@H](C(=O)N[C@@H](CCCCN)C(=O)O)[C@@H](C)O` [SP16], for which the “effect on the human receptor panel (in words)” value in the series on 111 human receptors is “not able to identify any hits; also recorded: no effect on 111 human receptors”. The compound also came in with an IC50 at hERG greater than 25 µM. For the same compound, the “comment: concentration-dependent inhibition of hERG observed or not” value at hERG (0.008-25 μM) is recorded as “No concentration-dependent”. Besides, the activity at 0.008 µM on hERG (hERG, 0.008 μM) came out at 89%. Further, the activity at 0.04 µM at hERG (hERG, 0.04 μM) came to 95%. Moreover, the activity at 0.2 µM at hERG (hERG, 0.2 μM) was 95%. Also, on hERG (hERG, 1 μM), the activity at 1 µM worked out at 78%. The same compound gave an activity at 5 µM at hERG (hERG, 5 μM) of 88%. Besides, the activity at 25 µM at hERG (hERG, 25 μM) came to 89%. Besides, the “inhibition of hERG (in words)” value against hERG (up to 25 μM) is on record as “does not impact hERG activity; also recorded: does not inhibit hERG”. For the same compound, the “Last Time point” value in [1] (SP16, IV (5 mg/kg), normal rats) came to 8.0. The Cmax in series [1] (rat, in vivo, iv, 5 mg/kg intravenously, three normal rats) is 2500 ng/mL. Besides, the half-life in [1] (rat, in vivo, iv, 5 mg/kg intravenously, three normal rats, read-out: T1/2 (half-life) (converted)) was 1.9 h. Moreover, in [1] (setting [4]), the C0 is 2500 ng/mL and the mean residence time MRT inf stood at 1.1 h. Also, the AUC in [1] (rat, in vivo, SP16, IV (5 mg/kg), normal rats, read-out: AUC to Last) turned out to be 900 ng·h/mL. Moreover, the clearance in series [1] (rat, in vivo, SP16, IV (5 mg/kg), normal rats, read-out: Total CL (converted)) is 2.33 mL/min and 9.7 mL/min/kg. For the same compound, the Vd in series [1] (rat, in vivo, SP16, IV (5 mg/kg), normal rats, read-out: Vss) was 0.149 L. For the same compound, the Vd in [1] (rat, plasma, SP16, IV (5 mg/kg), normal rats, read-out: V) worked out at 0.374 L. In addition, the heart contractility entry with healthy mouse is “does not affect heart contractility”.
For “A A A N K P F V F L M I E Q N T K (AAANKPFVFLMIEQNTK; listed as Homo sapiens) [SP37]”, the “binding to LRP1 (statement without method)” value with recombinant LRP1 protein is recorded as “bind LRP1”.
For the compound “AAT: plasma derived alpha-1 antitrypsin (AAT) (Aralast N P, Baxter); circulating serum protein, parent of SP16”, the “protective effects (infarct size, LV systolic function) after LRP1 blocking antibody” value with LRP1 was “eliminates the cardioprotective effects; also recorded: eliminated the protective effects”. Also, the “safety and efficacy in blocking the inflammatory reaction after AMI” value in series [2] was “preliminary safety and efficacy”. For the same compound, the infarct size entry in series [3] (vs albumin, FIG. 3) is reported as “significantly smaller infarct size; also recorded: reduces infarct size”. Also, the “cardiac healing and remodeling” value in series [3] is “more favorable cardiac healing and remodeling”.
For “V K F A A A F V F L M I E Q N T K (VKFAAAFVFLMIEQNTK; listed as Homo sapiens) [SP40]”, the anti-inflammatory effect result in the series on TNF-alpha was “particularly good anti-inflammatory effect”. For the same compound, in the series with recombinant LRP1 protein, the “binding to LRP1 (statement without method)” value is on record as “bind LRP1”.
In the case of “V K F N K P A A A L M I E Q N T K (VKFNKPAAALMIEQNTK; listed as Homo sapiens) [SP43]”, the anti-inflammatory effect result in the series on TNF-alpha is recorded as “particularly good anti-inflammatory effect”.
In the case of “V K F N K P F V F A A A E Q N T K (VKFNKPFVFAAAEQNTK; listed as Homo sapiens) [SP46]”, in the series on TNF-alpha, the anti-inflammatory effect entry is given as “particularly good anti-inflammatory effect”.
On to “V K F N K P F V F L M I A A A T K (VKFNKPFVFLMIAAATK; listed as Homo sapiens) [SP49]”, for which the anti-inflammatory effect result in the series with TNF-alpha is listed as “particularly good anti-inflammatory effect”.
For the compound “V K F N K P F V F L M I E Q A A A (VKFNKPFVFLMIEQAAA; listed as Homo sapiens) [SP51]”, in the series with recombinant LRP1 protein, the “binding to LRP1 (statement without method)” value is reported as “bind LRP1”.

Values taken from patent US11020462B2, “Methods for treatment of diseases” (SERPIN PHARMA, LLC, priority 2015, dated 2021).
